# Reference: patent US7655429B2, “Immunoassays for topiramate” (Seradyn, Inc., priority 2004, dated 2010)
# Key:
# [1] = cited from earlier work
# [2] = tested on: anti-topiramate antibodies prepared with immunogen (18); assay: ELISA binding inhibition study (avidity), free topiramate versus coated antigen; set-up: species or system Rabbit; Abs: unit not given here
# Protocol: ELISA plates for use in an ELISA assay are prepared in order to study the polyclonal antibody prepared as described in Example 21. As such, various topiramate antigens (16), (19), and (20) are coated on different ELISA plates before being subjected to the anti-topiramate antibody and competing free topiramate. More particularly, the topiramate antigens are diluted in coating buffer, and then added to the wells of ELISA plate. After the ELISA plate is incubated for 60 min at 37° C., the solvent in the coating buffer is decanted and a blocking buffer is added to the plate. The plate is incubated again for 60 min at 37° C., and the solvent in the blocking buffer is decanted from the plate. The ELISA plate is then stored with the blocking agent in the wells at 2-8° C. for up to 1 week. The avidity of the anti-topiramate antibodies prepared with immunogen (17) for topiramate analogs are determined by a binding inhibition study. As such, samples are prepared in 1 mL of PBS at pH 7.4 with 0.1% BSA. A composition having 30% Bmax titer or 50% Bmax titer is used to divide the obtained titer value into approximately half the titer value. Using 30% Bmax, an antibody titer of 1:10,000 is diluted to 1:5,000 during the sample preparation stage. About 50 μL of topiramate at different concentrations or calibrator values, (0, 2, 4, 8, 16, 32 μg/ml) are then applied to a plate as prepared in accordance with Example 22. About 50 μL of the diluted antibody is dispensed into the plate, and the compositions in the plate are mixed for 1 min on a horizontal plate shaker. The plate is characterized by a first row not containing topiramate or anti-topiramate antibody, wherein the first row is used as a negative control. A second row not containing topiramate is used as the positive control. The plate is incubated for 60 min, and washed three times with 250 μL of PBS at pH 7.4 with 0.05% tween. About 125 μL of a diluted second antibody conjugate such as antigens (16), (19), or (20), in PBS at pH 7.4 is added to each well of the plate. Titer is determined experimentally by the plate being incubated for 60 min at 37° C. and washed 3 times with 250 μL PBS, pH 7.4 with 0.05% tween. Subsequently, about 125 μL of ABTS substrate is added to each well of the plate and incubated for 20 min. The avidity of the anti-topiramate antibodies prepared with immunogen (18) for topiramate analogs is determined by a binding inhibition study performed with an experimental protocol substantially similar as in Example 24.
# [3] = dose escalation add-on studies, morning serum
# [4] = Antigen 16, Topiramate 2 μg/ml, Rabbit No. 5490
# [5] = Antigen 16, Topiramate 2 μg/ml, Rabbit No. 5495
# [6] = Antigen 16, Topiramate 4 μg/ml, Rabbit No. 5490
# [7] = Antigen 16, Topiramate 4 μg/ml, Rabbit No. 5495
# [8] = Antigen 16, Topiramate 8 μg/ml, Rabbit No. 5490
# [9] = Antigen 16, Topiramate 8 μg/ml, Rabbit No. 5495
# [10] = Antigen 16, Topiramate 16 μg/ml, Rabbit No. 5490
# [11] = Antigen 16, Topiramate 16 μg/ml, Rabbit No. 5495
# [12] = Antigen 16, Topiramate 32 μg/ml, Rabbit No. 5490
# [13] = Antigen 16, Topiramate 32 μg/ml, Rabbit No. 5495
# [14] = Antigen 19, Topiramate 2 μg/ml, Rabbit No. 5490
# [15] = Antigen 19, Topiramate 2 μg/ml, Rabbit No. 5495
# [16] = Antigen 19, Topiramate 4 μg/ml, Rabbit No. 5490
# [17] = Antigen 19, Topiramate 4 μg/ml, Rabbit No. 5495
# [18] = Antigen 19, Topiramate 8 μg/ml, Rabbit No. 5490
# [19] = Antigen 19, Topiramate 8 μg/ml, Rabbit No. 5495
# [20] = Antigen 19, Topiramate 16 μg/ml, Rabbit No. 5490
# [21] = Antigen 19, Topiramate 16 μg/ml, Rabbit No. 5495
# [22] = Antigen 19, Topiramate 32 μg/ml, Rabbit No. 5490
# [23] = Antigen 19, Topiramate 32 μg/ml, Rabbit No. 5495
# [24] = Antigen 20, Topiramate 2 μg/ml, Rabbit No. 5490
# [25] = Antigen 20, Topiramate 2 μg/ml, Rabbit No. 5495
# [26] = Antigen 20, Topiramate 4 μg/ml, Rabbit No. 5490
# [27] = Antigen 20, Topiramate 4 μg/ml, Rabbit No. 5495
# [28] = Antigen 20, Topiramate 8 μg/ml, Rabbit No. 5490
# [29] = Antigen 20, Topiramate 8 μg/ml, Rabbit No. 5495
# [30] = Antigen 20, Topiramate 16 μg/ml, Rabbit No. 5490
# [31] = Antigen 20, Topiramate 16 μg/ml, Rabbit No. 5495
# [32] = Antigen 20, Topiramate 32 μg/ml, Rabbit No. 5490
# [33] = Antigen 20, Topiramate 32 μg/ml, Rabbit No. 5495
structure (smiles),measurement,setting,value
"CC1(C)O[C@@H]2[C@@H](CO[C@@]3(COS(N)(=O)=O)OC(C)(C)O[C@@H]23)O1 [Topiramate, 2,3:4,5-di-O-isopropylidene-beta-D-fructopyranose sulfamate]",serum concentration with reduction in seizure control,[1]; [3],greater than 75 μmol/L
same,serum concentration with significant increase in side effects,[1]; [3],> 60 µM
same,systemic topiramate concentrations,"[1]; patients receiving considerably higher doses, up to 2000 mg",≤ 80 µmol/L
same,Abs,[2]; [4],0.25
same,B/Bo,[2]; [4],0.35
same,Abs,[2]; [5],0.25
same,B/Bo,[2]; [5],0.35
same,Abs,[2]; [6],0.20
same,B/Bo,[2]; [6],0.28
same,Abs,[2]; [7],0.28
same,B/Bo,[2]; [7],0.39
same,Abs,[2]; [8],0.15
same,B/Bo,[2]; [8],0.21
same,Abs,[2]; [9],0.15
same,B/Bo,[2]; [9],0.21
same,Abs,[2]; [10],0.12
same,B/Bo,[2]; [10],0.17
same,Abs,[2]; [11],0.12
same,B/Bo,[2]; [11],0.17
same,Abs,[2]; [12],0.10
same,B/Bo,[2]; [12],0.14
same,Abs,[2]; [13],0.10
same,B/Bo,[2]; [13],0.14
same,Abs,[2]; [14],0.10
same,B/Bo,[2]; [14],0.18
same,Abs,[2]; [15],0.13
same,B/Bo,[2]; [15],0.20
same,Abs,[2]; [16],0.06
same,B/Bo,[2]; [16],0.10
same,Abs,[2]; [17],0.08
same,B/Bo,[2]; [17],0.12
same,Abs,[2]; [18],0.04
same,B/Bo,[2]; [18],0.07
same,Abs,[2]; [19],0.05
same,B/Bo,[2]; [19],0.08
same,Abs,[2]; [20],0.03
same,B/Bo,[2]; [20],0.06
same,Abs,[2]; [21],0.04
same,B/Bo,[2]; [21],0.06
same,Abs,[2]; [22],0.02
same,B/Bo,[2]; [22],0.04
same,Abs,[2]; [23],0.02
same,B/Bo,[2]; [23],0.03
same,Abs,[2]; [24],0.25
same,B/Bo,[2]; [24],0.63
same,Abs,[2]; [25],0.18
same,B/Bo,[2]; [25],0.53
same,Abs,[2]; [26],0.24
same,B/Bo,[2]; [26],0.60
same,Abs,[2]; [27],0.17
same,B/Bo,[2]; [27],0.50
same,Abs,[2]; [28],0.22
same,B/Bo,[2]; [28],0.55
same,Abs,[2]; [29],0.16
same,B/Bo,[2]; [29],0.47
same,Abs,[2]; [30],0.21
same,B/Bo,[2]; [30],0.53
same,Abs,[2]; [31],0.14
same,B/Bo,[2]; [31],0.41
same,Abs,[2]; [32],0.20
same,B/Bo,[2]; [32],0.50
same,Abs,[2]; [33],0.11
same,B/Bo,[2]; [33],0.32
